From patent publication US20080139534A1, “Bisbenzamidines and bisbenzamidoximes for the treatment of human African trypanosomiasis” (XAVIER UNIVERSITY OF LOUISIANA, priority 2006, published 2008) come the findings set out here.

In general, IC50 refers to the midpoint of a concentration-inhibition curve.

For one test, the system named is calf thymus DNA. The test is described as follows: Thermal denaturation study, DNA binding affinity (ΔTm). Particulars: 1:5 compound to base pair ratio.
Another test relates to poly(dA-dT). The description is as above. As to conditions: 1:5 compound to base pair ratio.
Test [1] has as its system T. b. rhodesiense KETRI 243. The test is described as follows: In vitro trypanocidal activity, bloodforms in HMI-18 medium, Coulter counts. In kind it is cell-based, Trypanosoma brucei rhodesiense. Particulars: Trypanosoma brucei, RHODESIENSE, 48 h exposure.
The test system of test [2] is T. b. brucei Lab 110 EATRO. Described as above. The class given is cell-based, Trypanosoma brucei brucei. Particulars: Trypanosoma brucei; 48 h exposure, bloodforms; read-out: Lab 100 EATRO IC50.
Test [3] relates to T. b. rhodesiense KETRI 2002. The test is described as follows: In vivo efficacy in infected mice, clinical isolate. The arrangement: species or system Trypanosoma brucei rhodesiense.
Description: (§1) Female Swiss-Webster mice (weight, 20 g) were infected (intraperitoneally) with 2.5×10^5 trypanosomes from rat blood, and the infection was allowed to develop for 24 h before drug treatment was begun. Groups of three mice each were injected (intraperitoneally) with each drug concentration. All of the experiments included a group of untreated controls. […] Animals were monitored weekly for parasites in tail vein blood smears. Mice were considered cured if they survived more than 30 days after the death of the last control with no parasites in tail vein blood smears. MSD (mean survival in days) was also recorded for each group. It is the average time of survival of the animals in the group, exclusive of cured animals.
(§2) Mice were infected on day 1 with 2.5×10^5 trypanosomes and the infections allowed to progress 24 h. prior to dosing. Animals were dosed 1×/day i.p for 3 days. Cured animals survived >30 days beyond the death of untreated, infected controls. MSD=mean survival in days exclusive of cured animals. Dose as mg/kg/day.
In test [4] the test system is T. b. brucei Lab 110 EATRO. The test is described as follows: In vivo efficacy in infected mice. The arrangement: species or system Trypanosoma brucei brucei. Particulars: mice.
Description: Female Swiss-Webster mice (weight, 20 g) were infected (intraperitoneally) with 2.5×10^5 trypanosomes from rat blood, and the infection was allowed to develop for 24 h before drug treatment was begun. Groups of three mice each were injected (intraperitoneally) with each drug concentration. All of the experiments included a group of untreated controls. […] Parasitemia of animals dying of infection averaged 0.5-1.0×10^9/mL of blood. These infections are very predictable and daily counts were not done because of the labor involved. […] Animals were monitored weekly for parasites in tail vein blood smears. Mice were considered cured if they survived more than 30 days after the death of the last control with no parasites in tail vein blood smears. MSD (mean survival in days) was also recorded for each group. It is the average time of survival of the animals in the group, exclusive of cured animals.
Mice were infected with 250,000 parasites and dosing commenced 24 h. post infection. Mice were separated into groups of three and given single i.p doses for 3 days unless otherwise noted. Infected untreated controls were used for each experiment. Mice were considered cured if surviving more than 30 days beyond death of controls without parasites in tail vein blood smears. MSD, mean survival in days, exclusive of cured animals.
Test [5] deals with T. b. rhodesiense KETRI 2538. The test is described as follows: In vivo efficacy in infected mice, clinical isolate. Further details: species or system Trypanosoma brucei rhodesiense.
Description: as §1, §2
Test [6] has as its system T. b. rhodesiense KETRI 1992. The test is described as above. The arrangement: species or system Trypanosoma brucei rhodesiense.
Description: as §1, §2
Where [7] appears, read: 25 mg/kg i.p., single dose (1x).
The mark [8] stands for this setting: KETRI 1992, 5 mg/kg/day i.p. for 3 days.
[9] abbreviates: KETRI 1992, 10 mg/kg/day i.p. for 3 days.
Setting [10] is: KETRI 1992, 15 mg/kg/day i.p. for 3 days.

Some results are limits rather than exact numbers.
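Throughout, for DNA Binding Δ Tm Calf thymus: shift in midpoint melting temperature of calf thymus DNA thermal denaturation curves caused by compound binding, values averaged over at least two determinations.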
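Throughout, for DNA Binding Δ Tm Poly (dA-dT): shift in the midpoint temperature of the thermal melting curve of poly(dA-dT), each value the mean of two or more independent determinations.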

Description for calf thymus DNA: (§3) The binding affinity was measured by determining the change in the midpoint (Tm) of the thermal denaturation curves of calf thymus DNA as well as poly(dA-dT) at a 1:5 compound to base pair ratio.
Description for poly(dA-dT): as §3

For the compound `N=C(N)c1ccc(NC(=O)CCCCC(=O)Nc2ccc(C(=N)N)cc2)cc1` [compound 0702], the “DNA Binding Δ Tm Calf thymus” value with calf thymus DNA was 8.7 °C. For the same compound, the “DNA Binding Δ Tm Poly (dA-dT)” value with poly(dA-dT) amounted to 14.4 °C. In addition, the half-maximal inhibitory concentration (IC50) in test [1] is 2.45 nM; in test [2] it was 2.8 nM. Further, the MSD in test [3] (KETRI 2002, 10 mg/kg/day i.p. for 3 days) was greater than 30 days; in test [3] (KETRI 2002, 15 mg/kg/day i.p. for 3 days), greater than 30 days; in test [3] (KETRI 2002, 25 mg/kg/day i.p. for 3 days) it was greater than 30 days; in test [4] (1 mg/kg/day i.p. for 3 days), 6.7 days; in test [4] (5 mg/kg/day i.p. for 3 days) it was greater than 30 days; in test [4] (10 mg/kg/day i.p. for 3 days), greater than 30 days. Besides, the MSD in test [4] (15 mg/kg/day i.p. for 3 days) is greater than 30 days; in test [4] (setting [7]), 22 days; in test [4] (25 mg/kg/day i.p., 2 doses (2x)), greater than 30 days; in test [5] (KETRI 2538, 5 mg/kg/day i.p. for 3 days), greater than 30 days; in test [5] (KETRI 2538, 10 mg/kg/day i.p. for 3 days), greater than 30 days; in test [5] (KETRI 2538, 15 mg/kg/day i.p. for 3 days), greater than 30 days. Besides, the figures for the MSD in test [6] (setting [8]), in test [6] (setting [9]) and in test [6] (setting [10]) were 16.5 days, 17.5 days and 22 days, respectively. In addition, the “# Cured/#Treated (%)” value in test [4] (1 mg/kg/day i.p. for 3 days) and in test [4] (setting [7]) was 0/3 each time. Also, the “#Cured/Total” value in test [6] (setting [8]), in test [6] (setting [9]) and in test [6] (setting [10]) was 0/3 throughout.
